Results taken from ChEMBL document CHEMBL1201862, “PubChem BioAssay data set” (2004).
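Briefly, cells in 96-well plates were exposed to five compound concentrations for 48 h, and endpoints were estimated by linear interpolation. Here, GI50 denotes the concentration required for 50% inhibition of growth.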 Calls of active or inactive are those of the source. Rule as the data show it: active = GI50 up to about 1.1 µM and inactive = higher.

Key:
Assay in all cases: NCI-60 cell line screen, 48 h
[1] = system: UACC-62
[2] = system: TK-10
[3] = system: MDA-MB-435
[4] = system: OVCAR-5
[5] = system: SK-MEL-5
[6] = system: CCRF-CEM
[7] = system: HCT-116
[8] = system: NCI/ADR-RES
[9] = system: OVCAR-4
[10] = system: CAKI-1
[11] = system: SNB-19
[12] = system: 786-0
[13] = system: MDA-N
[14] = system: U-251
[15] = system: M14
[16] = system: K562
[17] = system: HL-60
[18] = system: MCF7
[19] = system: SK-OV-3
[20] = system: T47D
[21] = system: BT-549
[22] = system: UO-31
[23] = system: HCC 2998
[24] = system: NCI-H23
[25] = system: ACHN
[26] = system: HT-29
[27] = system: SK-MEL-2
[28] = system: SF-539
[29] = system: HCT-15
[30] = system: MDA-MB-231
[31] = system: OVCAR-8
[32] = system: SW-620
[33] = system: SK-MEL-28
[34] = system: SF-268
[35] = system: Hs-578T
[36] = system: MOLT-4
[37] = system: SR
[38] = system: HOP-92
[39] = system: NCI-H522
[40] = system: LOX IMVI
[41] = system: OVCAR-3
[42] = system: NCI-H460
[43] = system: SF-295
[44] = system: EKVX
[45] = system: HOP-62
[46] = system: COLO 205
[47] = system: IGROV-1
[48] = system: NCI-H226
[49] = system: Malme-3M
[50] = system: A549
[51] = system: RPMI-8226
[52] = system: SNB-75
[53] = system: DU-145
[54] = system: SN12C
[55] = system: A498
[56] = system: KM12
[57] = system: PC-3
[58] = system: RXF 393
[59] = system: UACC-257

## CC(C)=CCC[C@@H](C)c1c2ncc[nH]c-2c(C)c(=O)c1O
[1]
  GI50: 18.7 µM (inactive)
[2]
  GI50: 31.1 µM (inactive)
[3]
  GI50: 41.9 µM (inactive)
[4]
  GI50: 45.6 µM (inactive)
[5]
  GI50: 11.7 µM (inactive)
[6]
  GI50: 4.53 µM (inactive)
[7]
  GI50: 37.1 µM (inactive)
[8]
  GI50: 4.49 µM (inactive)
[9]
  GI50: 26.1 µM (inactive)
[10]
  GI50: 35.1 µM (inactive)
[11]
  GI50: 25.9 µM (inactive)
[12]
  GI50: 39.4 µM (inactive)
[13]
  GI50: 37.8 µM (inactive)
[14]
  GI50: 43.6 µM (inactive)
[15]
  GI50: 27.9 µM (inactive)
[16]
  GI50: 21.7 µM (inactive)
[17]
  GI50: 7.03 µM (inactive)
[18]
  GI50: 36.8 µM (inactive)
[19]
  GI50: 31.8 µM (inactive)
[20]
  GI50: 25.9 µM (inactive)
[21]
  GI50: 30.8 µM (inactive)
[22]
  GI50: 6.92 µM (inactive)
[23]
  GI50: 31.9 µM (inactive)
[24]
  GI50: 22.4 µM (inactive)
[25]
  GI50: 12.4 µM (inactive)
[26]
  GI50: 27.4 µM (inactive)
[27]
  GI50: 18.6 µM (inactive)
[28]
  GI50: 22.2 µM (inactive)
[29]
  GI50: 6.46 µM
[30]
  GI50: 25.2 µM (inactive)
[31]
  GI50: 10 µM (inactive)
[32]
  GI50: 33.1 µM (inactive)
[33]
  GI50: 48.5 µM (inactive)
[34]
  GI50: 15.2 µM (inactive)
[35]
  GI50: 23.2 µM (inactive)
[36]
  GI50: 10.4 µM (inactive)
[37]
  GI50: 51.3 µM (inactive)
[38]
  GI50: 23.8 µM (inactive)
[39]
  GI50: 1.76 µM (inactive)
[40]
  GI50: 25.1 µM (inactive)
[41]
  GI50: 27.4 µM (inactive)
[42]
  GI50: 10.8 µM (inactive)
[43]
  GI50: 16.5 µM (inactive)
[44]
  GI50: 26.2 µM (inactive)
[45]
  GI50: 19.2 µM (inactive)
[46]
  GI50: 28.8 µM (inactive)
[47]
  GI50: 26.7 µM (inactive)
[48]
  GI50: 16.9 µM (inactive)
[49]
  GI50: 13.8 µM (inactive)
[50]
  GI50: 22.1 µM (inactive)
[51]
  GI50: 20 µM (inactive)
[52]
  GI50: 28.2 µM (inactive)
[53]
  GI50: 31.6 µM (inactive)
[54]
  GI50: 28.8 µM (inactive)
[55]
  GI50: 30 µM (inactive)
[56]
  GI50: 10.6 µM (inactive)
[57]
  GI50: 35.2 µM (inactive)
[58]
  GI50: 24.6 µM (inactive)
[59]
  GI50: 31.9 µM (inactive)
